{
  "source": "ChEMBL document CHEMBL5154819",
  "about": "(Eur J Med Chem, 2022)",
  "key": {"Mus musculus [1]": {"tested_on": "Mus musculus", "assay": "Analgesic activity in iv dosed ICR mouse assessed as reduction in acetic acid induced writhing administered for 15 mins followed by acetic acid injection and measured within 15 mins", "assay_type": "functional", "conditions": "0.5 h, time 30 min"}, "Rattus norvegicus": {"species": "Rattus norvegicus", "assay": "Antiinflammatory activity in carrageenan-induced Sprague-Dawley rat assessed as paw withdrawal threshold measured after 2.5 hrs by paw pressure test", "assay_type": "functional"}, "Mus musculus [2]": {"tested_on": "Mus musculus", "assay": "Analgesic activity in acetic acid induced ICR mouse assessed as average writhing times at 6.25 mg/kg, iv administered for 15 mins followed by acetic acid injection and measured within 15 mins (reference value: 26.1 +/- 16.3)", "assay_type": "functional", "conditions": "time 30 min, 0.5 h"}, "Mus musculus [3]": {"tested_on": "Mus musculus", "assay": "Analgesic activity in acetic acid induced ICR mouse assessed as average writhing times at 12.50 mg/kg, iv administered for 15 mins followed by acetic acid injection and measured within 15 mins (reference value: 26.1 +/- 16.3)", "assay_type": "functional", "conditions": "dose 12.5 mg/kg, time 30 min, 0.5 h"}, "Mus musculus [4]": {"tested_on": "Mus musculus", "assay": "Analgesic activity in acetic acid induced ICR mouse assessed as average writhing times at 25 mg/kg, iv administered for 15 mins followed by acetic acid injection and measured within 15 mins (reference value: 26.1 +/- 16.3)", "assay_type": "functional", "conditions": "time 30 min, 0.5 h"}, "Mus musculus [5]": {"tested_on": "Mus musculus", "assay": "Analgesic activity in acetic acid induced ICR mouse assessed as average writhing times at 50 mg/kg, iv administered for 15 mins followed by acetic acid injection and measured within 15 mins (reference value: 26.1 +/- 16.3)", "assay_type": "functional", "conditions": "time 30 min, 0.5 h"}, "Mus musculus [6]": {"tested_on": "Mus musculus", "assay": "Analgesic activity in acetic acid induced ICR mouse assessed as average writhing times at 3.13 mg/kg, iv administered for 15 mins followed by acetic acid injection and measured within 15 mins (reference value: 26.1 +/- 16.3)", "assay_type": "functional", "conditions": "time 30 min, 0.5 h"}, "Mus musculus [7]": {"tested_on": "Mus musculus", "assay": "Antinociceptive activity in acetic acid induced ICR mouse assessed as inhibition effect at 6.25 mg/kg, iv administered for 15 mins followed by acetic acid injection and measured within 15 mins", "assay_type": "functional", "conditions": "0.5 h, time 30 min"}, "Mus musculus [8]": {"tested_on": "Mus musculus", "assay": "Antinociceptive activity in acetic acid induced ICR mouse assessed as inhibition effect at 12.50 mg/kg, iv administered for 15 mins followed by acetic acid injection and measured within 15 mins", "assay_type": "functional", "conditions": "0.5 h, time 30 min"}, "Mus musculus [9]": {"tested_on": "Mus musculus", "assay": "Antinociceptive activity in acetic acid induced ICR mouse assessed as inhibition effect at 25 mg/kg, iv administered for 15 mins followed by acetic acid injection and measured within 15 mins", "assay_type": "functional", "conditions": "0.5 h, time 30 min"}, "Mus musculus [10]": {"tested_on": "Mus musculus", "assay": "Antinociceptive activity in acetic acid induced ICR mouse assessed as inhibition effect at 50 mg/kg, iv administered for 15 mins followed by acetic acid injection and measured within 15 mins", "assay_type": "functional", "conditions": "0.5 h, time 30 min"}, "[11]": {"assay": "Aqueous solubility of the compound at pH 7.8", "assay_type": "physicochemical"}},
  "data": [
    {"smiles": "CCC(=O)[N-]S(=O)(=O)c1ccc(-c2c(-c3ccccc3)noc2C)cc1.[Na+]", "note": "[PARECOXIB SODIUM]", "values": [
      {"measurement": "ED50", "setting": "Mus musculus [1]", "value": 15.7, "unit": "mg/kg"},
      {"measurement": "ED50", "setting": "Rattus norvegicus", "value": 22.7, "unit": "mg/kg"},
      {"measurement": "Activity", "setting": "Mus musculus [2]", "value": 22.2},
      {"measurement": "Activity", "setting": "Mus musculus [3]", "value": 13.7},
      {"measurement": "Activity", "setting": "Mus musculus [4]", "value": 10.1},
      {"measurement": "Activity", "setting": "Mus musculus [5]", "value": 2.4},
      {"measurement": "Activity", "setting": "Mus musculus [6]", "value": 21},
      {"measurement": "inhibition in vivo at 6.25 mg/kg", "setting": "Mus musculus [7]", "value": 14.9, "unit": "%"},
      {"measurement": "inhibition in vivo at 12.5 mg/kg", "setting": "Mus musculus [8]", "value": 47.5, "unit": "%"},
      {"measurement": "inhibition in vivo at 25 mg/kg", "setting": "Mus musculus [9]", "value": 61.3, "unit": "%"},
      {"measurement": "inhibition in vivo at 50 mg/kg", "setting": "Mus musculus [10]", "value": 90.8, "unit": "%"},
      {"measurement": "solubility", "setting": "[11]", "value": 18, "unit": "mg/mL"}
    ]}
  ]
}
